# Activity calls are given as the source filed them.
# Tests used:
# [1] = cytotoxicity in HEK-293T cells, dose response, cytotoxicity control for BCR NF-kB inhibitor project, luminescence, B-cell screen hits (AID 489021); type: functional, cell-based;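 further: HEK-293T cells carrying an NF-kB luciferase reporter; cells exposed to compound for about 14 hours before viability readout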
# Insulin-degrading enzyme = target: T1, Insulin-degrading enzyme (Homo sapiens, UniProt P14735); test: Dose Response: Fluorescence polarization-based cell-based high throughput dose response assay for inhibitors of insulin-degrading enzyme (IDE). [Related pubchem assays: 434962 (Primary screen (IDE inhibitors in singlicate)), 449730 (Counterscreen (Cytotoxicity in triplicate)), 435028 (Confirmation (IDE inhibitors in triplicate)), 434984 (Summary …; type: functional
# T1 sequence (P14735 whole entry): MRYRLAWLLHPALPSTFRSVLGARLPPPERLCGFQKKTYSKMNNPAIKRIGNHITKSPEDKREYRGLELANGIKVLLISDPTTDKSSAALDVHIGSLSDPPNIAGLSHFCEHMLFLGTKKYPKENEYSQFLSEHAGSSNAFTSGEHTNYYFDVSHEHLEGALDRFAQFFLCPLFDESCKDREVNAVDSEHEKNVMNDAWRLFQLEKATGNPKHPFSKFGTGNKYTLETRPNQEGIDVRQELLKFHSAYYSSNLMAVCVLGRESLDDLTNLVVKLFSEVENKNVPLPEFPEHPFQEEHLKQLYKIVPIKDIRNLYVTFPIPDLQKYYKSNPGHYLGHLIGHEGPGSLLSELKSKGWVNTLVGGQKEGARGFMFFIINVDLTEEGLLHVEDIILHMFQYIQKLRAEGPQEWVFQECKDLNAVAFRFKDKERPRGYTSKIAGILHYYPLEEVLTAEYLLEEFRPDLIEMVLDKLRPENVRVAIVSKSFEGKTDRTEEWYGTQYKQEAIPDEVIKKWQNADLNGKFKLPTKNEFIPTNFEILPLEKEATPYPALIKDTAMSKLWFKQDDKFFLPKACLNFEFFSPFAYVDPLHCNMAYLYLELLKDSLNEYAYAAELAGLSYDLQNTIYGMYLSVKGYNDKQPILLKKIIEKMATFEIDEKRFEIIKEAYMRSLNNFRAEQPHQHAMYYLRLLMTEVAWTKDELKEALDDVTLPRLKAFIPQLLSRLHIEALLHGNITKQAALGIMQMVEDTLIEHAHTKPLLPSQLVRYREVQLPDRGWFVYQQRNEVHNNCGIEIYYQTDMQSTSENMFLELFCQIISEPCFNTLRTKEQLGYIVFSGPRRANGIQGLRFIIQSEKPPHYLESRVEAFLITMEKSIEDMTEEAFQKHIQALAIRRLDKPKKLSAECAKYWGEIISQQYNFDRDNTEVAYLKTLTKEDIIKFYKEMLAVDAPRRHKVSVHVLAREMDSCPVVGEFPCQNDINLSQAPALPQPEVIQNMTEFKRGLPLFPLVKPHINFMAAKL
# [2] = Counterscreen for IDE inhibitors: Luminescence-based cell-based high throughput dose response assay to identify compounds that are cytotoxic to HEK cells. [Related pubchem assays: 434962 (Primary screen (IDE inhibitors in singlicate)), 449730 (Counterscreen (Cytotoxicity in triplicate)), 435028 (Confirmation (IDE inhibitors in triplicate)) …; type: functional; conditions: HEK293
# [3] = target: T2, Neuropeptide Y receptor type 2 (Homo sapiens, UniProt P49146); type: functional, cell-based;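 further: HEK293 cells expressing the receptor and a CNG channel; stimulus was NPY near EC95 followed by isoproterenol to raise cAMP; antagonist potency measured as restoring cAMP signal that NPY suppresses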
# T2 sequence (P49146 whole entry): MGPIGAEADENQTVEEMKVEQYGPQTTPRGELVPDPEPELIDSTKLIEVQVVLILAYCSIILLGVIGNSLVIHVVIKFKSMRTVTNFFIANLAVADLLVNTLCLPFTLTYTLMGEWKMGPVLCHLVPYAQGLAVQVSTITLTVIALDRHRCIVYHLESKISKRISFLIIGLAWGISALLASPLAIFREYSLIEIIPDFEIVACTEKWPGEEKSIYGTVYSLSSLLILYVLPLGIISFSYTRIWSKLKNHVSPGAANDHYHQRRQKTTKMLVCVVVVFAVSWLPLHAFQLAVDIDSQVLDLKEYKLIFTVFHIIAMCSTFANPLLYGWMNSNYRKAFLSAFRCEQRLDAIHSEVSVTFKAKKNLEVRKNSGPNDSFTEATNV
# [4] = target: T3, Neuropeptide Y receptor type 1 (Homo sapiens, UniProt P25929); type: functional;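 further: HEK293 cells with a CNG channel challenged with NPY then isoproterenol; potency as antagonist that reverses NPY suppression of cAMP signal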
# T3 sequence (P25929 whole entry): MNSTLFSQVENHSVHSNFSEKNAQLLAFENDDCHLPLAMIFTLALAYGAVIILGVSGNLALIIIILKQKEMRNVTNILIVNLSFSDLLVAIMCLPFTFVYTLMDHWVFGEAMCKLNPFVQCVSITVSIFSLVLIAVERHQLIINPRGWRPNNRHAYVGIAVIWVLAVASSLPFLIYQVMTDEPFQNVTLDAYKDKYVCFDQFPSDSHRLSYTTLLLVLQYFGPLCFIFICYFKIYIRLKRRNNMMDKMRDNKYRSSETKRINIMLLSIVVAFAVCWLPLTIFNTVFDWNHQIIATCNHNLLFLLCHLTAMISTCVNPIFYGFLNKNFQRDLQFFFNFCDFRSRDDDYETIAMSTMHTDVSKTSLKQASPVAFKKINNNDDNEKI
# [5] = HEp-2 cell cytotoxicity, dose response, cytotoxicity control for RSV inhibitor project, HTS (AID 2410); type: functional; conditions: human respiratory syncytial virus
# Estrogen receptor beta = Estrogen receptor beta (Homo sapiens, UniProt Q92731); test: ERβ–SRC-3 coactivator interaction inhibitors, confirmation, orthogonal assay, biochemical, ELISA, streptavidin-HRP readout (AID 1060)
# Sequence of Estrogen receptor beta (Q92731 whole entry): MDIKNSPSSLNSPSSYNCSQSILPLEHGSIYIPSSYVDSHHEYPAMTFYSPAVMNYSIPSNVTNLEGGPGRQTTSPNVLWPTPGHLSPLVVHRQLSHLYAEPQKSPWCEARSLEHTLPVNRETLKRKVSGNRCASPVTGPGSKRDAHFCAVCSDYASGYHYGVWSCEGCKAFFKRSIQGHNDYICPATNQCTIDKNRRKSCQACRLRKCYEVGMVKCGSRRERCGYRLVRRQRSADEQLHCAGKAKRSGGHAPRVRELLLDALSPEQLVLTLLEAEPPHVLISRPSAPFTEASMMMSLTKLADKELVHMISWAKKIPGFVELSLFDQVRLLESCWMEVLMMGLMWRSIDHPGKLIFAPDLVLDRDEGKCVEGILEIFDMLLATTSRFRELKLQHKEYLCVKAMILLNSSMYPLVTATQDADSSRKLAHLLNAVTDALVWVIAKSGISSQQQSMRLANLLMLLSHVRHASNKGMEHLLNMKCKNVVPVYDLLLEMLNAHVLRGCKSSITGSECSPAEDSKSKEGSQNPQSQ
# Aminopeptidase N = target: T4, Aminopeptidase N (Plasmodium falciparum FcB1/Columbia, UniProt O96935); test: P. falciparum M1AAP inhibitors, biochemical, fluorogenic H-Leu-NHMec substrate, 1536-well (AID 1445); design: species or system Plasmodium falciparum 3D7, 3D7
# T4 sequence (O96935 whole entry): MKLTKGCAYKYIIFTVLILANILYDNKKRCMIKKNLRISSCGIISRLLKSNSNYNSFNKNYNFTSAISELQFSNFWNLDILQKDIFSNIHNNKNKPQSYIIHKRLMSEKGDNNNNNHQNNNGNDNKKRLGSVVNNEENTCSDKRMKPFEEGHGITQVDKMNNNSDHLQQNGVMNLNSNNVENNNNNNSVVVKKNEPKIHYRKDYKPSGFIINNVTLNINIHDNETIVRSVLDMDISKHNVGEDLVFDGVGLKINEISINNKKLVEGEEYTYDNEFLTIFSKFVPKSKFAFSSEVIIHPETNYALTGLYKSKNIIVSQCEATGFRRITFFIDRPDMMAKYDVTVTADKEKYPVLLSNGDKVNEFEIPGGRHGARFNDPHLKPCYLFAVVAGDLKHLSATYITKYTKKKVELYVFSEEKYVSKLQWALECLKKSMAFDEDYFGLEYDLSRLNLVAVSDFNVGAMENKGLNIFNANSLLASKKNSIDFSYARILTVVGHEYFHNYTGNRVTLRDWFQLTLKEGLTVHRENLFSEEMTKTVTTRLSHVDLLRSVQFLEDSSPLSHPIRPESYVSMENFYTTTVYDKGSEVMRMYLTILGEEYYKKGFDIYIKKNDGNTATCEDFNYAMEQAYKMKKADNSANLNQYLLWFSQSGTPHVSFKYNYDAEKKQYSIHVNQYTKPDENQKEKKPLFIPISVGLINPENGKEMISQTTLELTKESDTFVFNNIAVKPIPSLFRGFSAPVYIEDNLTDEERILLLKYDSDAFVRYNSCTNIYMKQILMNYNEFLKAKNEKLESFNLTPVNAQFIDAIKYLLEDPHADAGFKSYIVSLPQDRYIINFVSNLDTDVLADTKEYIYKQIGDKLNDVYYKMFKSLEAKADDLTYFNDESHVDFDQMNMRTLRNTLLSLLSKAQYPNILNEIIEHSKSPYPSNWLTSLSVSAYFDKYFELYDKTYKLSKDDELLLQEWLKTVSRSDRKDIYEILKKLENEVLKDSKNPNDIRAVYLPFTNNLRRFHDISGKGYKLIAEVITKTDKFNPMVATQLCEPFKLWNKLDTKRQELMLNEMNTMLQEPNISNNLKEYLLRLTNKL
# Protein Tat = target: T5, Protein Tat (Human immunodeficiency virus type 1 group M subtype B (isolate HXB2)(HIV-1), UniProt P04608); type: functional;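 further: tat binding to TAR RNA read out by fluorescence polarization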
# T5 sequence (P04608 whole entry): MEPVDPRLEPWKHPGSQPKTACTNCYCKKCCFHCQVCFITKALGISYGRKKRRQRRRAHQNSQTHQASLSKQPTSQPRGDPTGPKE
# [6] = target: T6, Polyadenylate-binding protein 1 (Homo sapiens, UniProt P11940); test: PABP1 MLLE–PAM2 interaction inhibitors, dose response, miRNA deadenylation inhibitor project, biochemical, fluorescence polarization, Cy5-PAM2 peptide, secondary (AID 602260); type: functional; conditions: read-out: IC50_Mean
# T6 sequence (P11940 whole entry): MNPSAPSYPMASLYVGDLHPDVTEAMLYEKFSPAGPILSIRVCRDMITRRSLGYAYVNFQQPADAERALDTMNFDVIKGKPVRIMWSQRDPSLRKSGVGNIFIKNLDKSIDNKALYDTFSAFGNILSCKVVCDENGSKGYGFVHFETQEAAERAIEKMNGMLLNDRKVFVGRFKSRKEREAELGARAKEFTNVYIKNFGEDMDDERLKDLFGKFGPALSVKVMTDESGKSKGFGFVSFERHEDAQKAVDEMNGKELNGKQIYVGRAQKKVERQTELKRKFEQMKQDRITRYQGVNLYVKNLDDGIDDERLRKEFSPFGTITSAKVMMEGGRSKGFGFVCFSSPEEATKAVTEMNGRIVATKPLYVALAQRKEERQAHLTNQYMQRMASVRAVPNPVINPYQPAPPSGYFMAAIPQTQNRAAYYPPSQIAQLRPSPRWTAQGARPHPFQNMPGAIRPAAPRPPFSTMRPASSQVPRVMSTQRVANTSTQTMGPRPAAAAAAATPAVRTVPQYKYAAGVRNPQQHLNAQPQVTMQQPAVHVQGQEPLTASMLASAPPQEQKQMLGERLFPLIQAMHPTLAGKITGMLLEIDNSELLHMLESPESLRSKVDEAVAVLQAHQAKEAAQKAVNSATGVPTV
# [7] = target: T6, Polyadenylate-binding protein 1; test: PABP1 MLLE–PAM2 binding inhibitor potency, dose response, biochemical, fluorescence polarization, FITC-PAM2 peptide (AID 602259); type: functional; conditions: read-out: IC50_Mean
# [8] = NIH-3T3 fibroblast cytotoxicity, dose response, cytotoxicity control, cell-based, fluorescence, Alamar Blue, secondary assay (AID 2327); type: functional;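 further: NIH-3T3 mouse fibroblasts cultured with fluconazole at 8 µg/mL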
# [9] = C. albicans growth with fluconazole, confirmation, fluorescence, retest (AID 2467); type: functional, cell-based
# [10] = target: T7, Ubiquitin-conjugating enzyme E2 N (Homo sapiens, UniProt P61088); type: functional;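 further: Dose-response confirmation in a TR-FRET assay detecting UBC13-driven polyubiquitin chain formation, inhibition measured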
# T7 sequence (P61088 whole entry): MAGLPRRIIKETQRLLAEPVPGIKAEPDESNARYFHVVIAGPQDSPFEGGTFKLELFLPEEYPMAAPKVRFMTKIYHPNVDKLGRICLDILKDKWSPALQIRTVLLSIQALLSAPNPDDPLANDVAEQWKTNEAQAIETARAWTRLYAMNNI
# [11] = target: T8, Apoptotic protease-activating factor 1 (Homo sapiens, UniProt O14727); type: functional
# T8 sequence (O14727 whole entry): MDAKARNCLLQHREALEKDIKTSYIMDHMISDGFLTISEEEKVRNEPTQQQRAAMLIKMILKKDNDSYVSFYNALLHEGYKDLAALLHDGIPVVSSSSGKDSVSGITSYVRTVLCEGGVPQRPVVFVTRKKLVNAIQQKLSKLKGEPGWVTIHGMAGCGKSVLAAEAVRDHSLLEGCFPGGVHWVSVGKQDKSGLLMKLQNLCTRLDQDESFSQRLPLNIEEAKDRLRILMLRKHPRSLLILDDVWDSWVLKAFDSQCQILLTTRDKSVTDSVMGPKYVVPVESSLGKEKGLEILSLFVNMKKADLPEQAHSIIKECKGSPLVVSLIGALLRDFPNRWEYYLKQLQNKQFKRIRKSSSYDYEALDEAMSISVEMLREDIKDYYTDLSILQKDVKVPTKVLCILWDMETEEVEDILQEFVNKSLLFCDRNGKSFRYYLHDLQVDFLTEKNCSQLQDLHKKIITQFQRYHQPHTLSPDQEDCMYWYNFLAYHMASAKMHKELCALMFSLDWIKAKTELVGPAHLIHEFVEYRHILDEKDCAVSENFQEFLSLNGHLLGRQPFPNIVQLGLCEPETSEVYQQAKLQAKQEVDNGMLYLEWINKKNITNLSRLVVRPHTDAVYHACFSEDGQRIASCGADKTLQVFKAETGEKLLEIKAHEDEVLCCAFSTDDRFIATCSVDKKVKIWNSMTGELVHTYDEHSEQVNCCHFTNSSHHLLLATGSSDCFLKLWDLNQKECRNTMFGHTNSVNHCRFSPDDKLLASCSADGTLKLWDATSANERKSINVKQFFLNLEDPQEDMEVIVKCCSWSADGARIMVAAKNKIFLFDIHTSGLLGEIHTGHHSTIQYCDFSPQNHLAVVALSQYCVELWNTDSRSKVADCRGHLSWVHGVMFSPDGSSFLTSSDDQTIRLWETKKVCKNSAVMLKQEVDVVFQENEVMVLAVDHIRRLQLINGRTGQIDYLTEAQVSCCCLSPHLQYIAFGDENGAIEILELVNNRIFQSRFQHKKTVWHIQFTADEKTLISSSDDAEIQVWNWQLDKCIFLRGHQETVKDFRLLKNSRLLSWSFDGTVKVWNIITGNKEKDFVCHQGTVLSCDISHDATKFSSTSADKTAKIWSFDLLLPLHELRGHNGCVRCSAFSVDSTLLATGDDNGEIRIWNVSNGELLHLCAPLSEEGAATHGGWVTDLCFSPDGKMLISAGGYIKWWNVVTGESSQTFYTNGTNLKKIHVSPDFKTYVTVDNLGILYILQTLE
smiles,measurement,setting,value
CCOC(=O)N1CCN(c2[nH]cnc3c4cc(OC)ccc4nc2-3)CC1,IC50,[1],56.9 µM (inactive)
same,IC50,Insulin-degrading enzyme,9.15 µM (active)
same,IC50,[2],18.4 µM (not active)
CCC(NCCC(c1ccccc1)c1ccccc1)=C1C(=O)N(C)C(=O)N(C)C1=O,IC50,[3],5.26 µM (active)
same,IC50,[4],5.26 µM (active)
COc1ccc(-c2cc(C(=O)N3CCCCCC3)c3ccccc3n2)c(OC)c1,IC50,cells,28 µM (active)
same,CC50,[5],40.8 µM (active)
N#Cc1ccc(N2CCN(C(=O)CCCCCn3c(=S)[nH]c4ccccc4c3=O)CC2)cc1,IC50,Estrogen receptor beta,10.5 µM (not active)
Cc1cccc(N2C(=O)/C(=C/Nc3ccccc3-c3nnc(S)nc3O)c3ccccc3C2=O)n1,IC50,Aminopeptidase N,60.4 µM (active)
same,IC50,Insulin-degrading enzyme,12.2 µM (not active)
same,IC50,[2],> 55.7 µM (not active)
Cc1ccc(S(=O)(=O)C(c2ccccc2)c2c(C)noc2C)cc1 (centres undefined),IC50,[3],3.92 µM (active)
same,IC50,[4],> 35 µM (not active)
C=CCn1c(SCC(=O)c2cc(C)n(C(C)COC)c2C)nc2sc(C)c(C)c2c1=O (centres undefined),IC50,Protein Tat,> 100 µM (active)
same,IC50,[6],> 66 µM (inactive)
same,IC50,[7],> 66 µM (inactive)
Cc1onc(-c2ccccc2Cl)c1C(=O)Nc1sc2c(c1C#N)CCC2,IC50,[3],5.86 µM (active)
same,EC50,[8],> 160 µM (inactive)
same,EC50,[9],1.59 µM (active)
same,IC50,[4],7.12 µM (active)
Cc1ccc(NC(=O)CN(C)C(=O)c2ccc3[nH]c4c(c3c2)CC(C)CC4)cc1 (centres undefined),IC50,cells,22.2 µM (active)
same,CC50,[5],28.2 µM (active)
same,IC50,[10],> 20 µM (inactive)
same,IC50,[11],> 100 µM (inactive)
